# Source: paper PMC12337082 (Journal of Biochemical and Molecular Toxicology, 2025)
# “Also recorded” adds a separate entry of the source. Where two headings read alike, the source gives them in different places.
# Experiments:
# [1] = test system: multiple myeloma cell lines; set-up: method as in Yasui et al. (2007) [63]; conditions: 48 h, ref Yasui et al. (2007) [63]; cited from earlier work
# MDA‐MB‐231 [2] = experiment: MTT cell viability assay, MDA‐MB‐231; type: cell-based, human; conditions: for IC50: Homo sapiens, MTT
# Description: (§1) MCF‐7, MDA‐MB‐231, and L‐929 mouse fibroblast cell lines were obtained from the American Type Culture Collection (ATCC, Manassas, Virginia, USA). MCF‐7 is a hormone‐responsive, differentiated mammary epithelium cell line with an ER+, PR+, and HER2‐ pattern (ATCC, HTB‐22). MDA‐MB‐231 is a triple‐negative differentiated mammary epithelium cell line (ATCC, HTB‐26). The L‐929 mouse fibroblast cell line is derived from the normal subcutaneous connective tissue of a mouse and is commonly used in cytotoxicity assays (ATCC, CCL‐1). All cell lines were cultured in DMEM medium (Dulbecco's Modified Eagle Medium, Gibco), supplemented with 10% fetal bovine serum (Gibco), 1% glutamine, and penicillin/streptomycin (Gibco) in a humidified atmosphere containing 5% CO2 at 37°C. Cell viability was tested using Trypan blue staining.
# (§2) The MTT [3‐(4,5‐dimethylthiazol‐2‐yl)−2,5‐diphenyltetrazolium bromide] assay is a colorimetric assay for determining cell metabolic activity. In the MTT assay, the yellow dye MTT that dissolves in water is changed by mitochondrial reductase into a purple formazan that is non‐soluble. The water‐insoluble formazan produced is solubilized in a solubilization buffer, and absorbances are detected.
# (§3) In 96‐well plates, the cells were cultivated at a density of 5 × 10^3 cells/well using 100 µL medium. […] 10 μL of the MTT labeling reagent (final concentration 0.5 mg/mL) were added to each well at the end of the incubation periods, and the wells were incubated for an additional 4 h. Next, each well received 100 μL of solubilization buffer (10% SDS in 0.01 M HCl) and was overnight incubated, and the absorbance of formazan products was evaluated at 550 nm using a multi‐mode microplate reader (Synergy H1, Biotech Instruments Inc., Vermont, USA). The results were normalized relative to the absorbances of calculated percent concentrations of DMSO. All tests involved three replicates with three independent experiments.
# (§4) All statistical evaluations, including t‐tests and IC50 values, were calculated using the GraphPad Prism software tool (v6.0, GraphPad Software Inc., San Diego, USA). Statistical significance was defined as p ˂ 0.05 (*p < 0.05, **p < 0.01, ***p < 0.001, ****p < 0.0001).
# Bax/Bcl‐2 ratio = experiment: Western blot Bax/Bcl‐2 ratio in breast cancer cell lines; type: cell-based, human; conditions: 50 and 75 µM, 24 h
# Experimental: (§5) Total protein levels were measured using the Take3 Multi‐Volume Plate (Synergy H1, BioTek Instruments Inc., Vermont, USA). In accordance with the classical protocol, transferred proteins were exposed to the following primary antibodies: Beta‐actin (NB600‐501, Novus Biologicals), Bax (SPM336, NBP2‐32809), Bcl‐2 (100/D5, NBP2‐15200), cleaved PARP (194C1439, NBP2‐27335), and COX‐2 (D‐12:sc‐166475, Santa Cruz). The bands were visualized with chemiluminescent HRP substrates (Western Bright ECL‐Advansta, K‐12045‐050). Using a chemiluminescence imaging system (Celvin S, BioStep), the relative quantification was done based on the level of β‐actin proteins.
# MDA‐MB‐231 [3] = experiment: Annexin V/PI staining, Tali image‐based cytometry, MDA‐MB‐231; type: cell-based, human; conditions: MDA‐MB‐231, 24 h
# Description: (§6) To assess apoptosis and cell death, cells were stained with Annexin V‐PI dyes (Tali Apoptosis Kit‐Annexin V Alexa Fluor 488 and PI‐, Molecular Probes A10788, Invitrogen) and quantified using Tali Image‐Based Cytometer (Invitrogen) and fluorescence microscopy (Olympus CKX41 Inverted Phase Contrast Fluorescence Microscope furbished with reflected fluorescence illuminator CKX‐RFA).
# (§7) To assess whether our compounds produce their cytotoxic effects through induction of apoptosis, apoptosis was investigated using Annexin V/PI labeling and MMP methods (Figures 4A−C). In addition, by utilizing TALI image‐based cytometry and fluorescent microscopy, the number of cells was analyzed for different concentrations of agents (Table 4).
# MCF‐7 [4] = experiment: Mitochondrial membrane potential (JC‐1) apoptosis assay, MCF‐7; type: cell-based, human; conditions: MCF‐7, 50 μM, 24 h, MMP assay
# Experimental: (§8) Apoptosis was also investigated by evaluating mitochondrial membrane potential changes (MMP assay). MCF‐7, MDA‐MB‐231, and L‐929 cells were stained with JC‐1 dye according to the manufacturer's protocols (JC‐1 MMP Assay Kit, KA1324, Abnova). The apoptotic to healthy cell ratio was calculated using absorbances collected from two different fluorescence channels (535/595 for healthy cells, 485/535 for apoptotic cells) (Synergy H1, Biotech Instruments Inc., Vermont, USA).
# COX‐2 [5] = experiment: Western blot COX‐2 protein expression, MCF‐7; type: cell-based, human; conditions: 24 h
# Experimental: as §5
# MCF‐7 [6] = experiment: MTT cell viability assay, MCF‐7; type: cell-based, human; conditions: for IC50: Homo sapiens, MCF7, MTT
# Description: as §1, §2, §3, §4
# MDA‐MB‐231 [7] = experiment: Mitochondrial membrane potential (JC‐1) apoptosis assay, MDA‐MB‐231; type: cell-based, human; conditions: MDA‐MB‐231, 50 μM, 24 h, MMP assay
# Experimental: as §8
# COX‐2 [8] = experiment: Western blot COX‐2 protein expression, MDA‐MB‐231; type: cell-based, human; conditions: 24 h
# Experimental: as §5
# L‐929 = experiment: Mitochondrial membrane potential (JC‐1) apoptosis assay, L‐929; type: cell-based, mouse; conditions: L‐929, 50 μM, 24 h, MMP assay
# Experimental: as §8
# [9] = test system: L‐929 mouse fibroblast cell line; experiment: MTT cell viability assay, L‐929 control fibroblasts; type: cell-based; conditions: Mus musculus
# Description: as §1, §2, §3, §4
# c‐PARP = experiment: Western blot cleaved PARP, MDA‐MB‐231; type: cell-based, human; conditions: MDA‐MB‐231, 24 h, all concentrations (50 and 75 µM); not measurable in MCF‐7
# Experimental: as §5
# MCF‐7 [10] = experiment: Annexin V/PI staining, Tali image‐based cytometry, MCF‐7; type: cell-based, human; conditions: MCF‐7, 24 h
# Description: as §6, §7
# MCF‐7 [11] = conditions: cited from earlier work
# MDA‐MB‐231 [12] = conditions: MDA‐MB‐231, 24 h, cited from earlier work
# [13] = test system: cancer cell proliferation; set-up: method as in PMID 27074576; conditions: read-out: Effective range of cytotoxicity IC50 values in inhibiting cancer cell proliferation; cited from earlier work
structure (smiles),measurement,setting,value
CCc1cccc2c3c([nH]c12)[C@@](CC)(CC(=O)O)OCC3 [Etodolac R‐enantiomer SDX‐101],IC50,[1],490 µM
"CCc1cccc2c3c([nH]c12)C(CC)(CC(=O)NN1C(=O)CSC1c1c(F)cccc1F)OCC3 (stereo not drawn) [SGK 217, 3‐(2‐(1,8‐Diethyl‐1,3,4,9‐tetrahydropyrano[3,4‐b]indole‐1‐yl)acetylhydrazono)‐2‐(2,6‐difluorophenyl)‐4‐thiazolidinone]",IC50,"MDA‐MB‐231 [2]; MDA-MB-231, 24 h, MDA‐MB‐231, 24 h",36 ± 1.6 µM
same,IC50,"MDA‐MB‐231 [2]; MDA-MB-231, 48 h, MDA‐MB‐231, 48 h",13.8 ± 1.6 µM
same,IC50,"MDA‐MB‐231 [2]; MDA-MB-231, 72 h, MDA‐MB‐231, 72 h",14.6 ± 1.4 µM
same,Selectivity index (SI),"MDA‐MB‐231 [2]; MDA‐MB‐231 in comparison to L‐929, 24 h",2.0
same,Selectivity index (SI),"MDA‐MB‐231 [2]; MDA‐MB‐231 in comparison to L‐929, 48 h",2.1
same,Selectivity index (SI),"MDA‐MB‐231 [2]; MDA‐MB‐231 in comparison to L‐929, 72 h",1.8
same,Bax/Bcl‐2 ratio change,Bax/Bcl‐2 ratio,significantly rise
same,Apoptotic cells,MDA‐MB‐231 [3]; 25 µM,0%
same,Dead cells,MDA‐MB‐231 [3]; 25 µM,7%
same,Live cells,MDA‐MB‐231 [3]; 25 µM,93%
same,Apoptotic cells,MDA‐MB‐231 [3]; 50 µM,23%
same,Dead cells,MDA‐MB‐231 [3]; 50 µM,11%
same,Live cells,MDA‐MB‐231 [3]; 50 µM,66%
same,Increase in apoptosis compared to the control group,MCF‐7 [4],51%
same,Decrease in COX‐2 protein expression compared to the control group,"COX‐2 [5]; MCF‐7, 50 µM",56%
same,Decrease in COX‐2 protein expression compared to the control group,"COX‐2 [5]; MCF‐7, 75 µM",85%
same,IC50,"MCF‐7 [6]; MCF‐7, 24 h",18 ± 3.4 µM
same,IC50,"MCF‐7 [6]; MCF‐7, 48 h",12.2 ± 2 µM
same,IC50,"MCF‐7 [6]; MCF‐7, 72 h",26.7 ± 4.8 µM
same,Selectivity index (SI),"MCF‐7 [6]; MCF‐7 in comparison to L‐929, 24 h",4.0
same,Selectivity index (SI),"MCF‐7 [6]; MCF‐7 in comparison to L‐929, 48 h",2.4
same,Selectivity index (SI),"MCF‐7 [6]; MCF‐7 in comparison to L‐929, 72 h",1
same,Increase in apoptosis compared to the control group,MDA‐MB‐231 [7],85%
same,Decrease in COX‐2 protein expression compared to the control group,"COX‐2 [8]; MDA‐MB‐231, 50 µM",61%
same,Decrease in COX‐2 protein expression compared to the control group,"COX‐2 [8]; MDA‐MB‐231, 75 µM",84%
same,Increase in apoptosis compared to the control group,L‐929,3%
same,IC50,"[9]; L929, 24 h, L‐929, 24 h",72 ± 3.2 µM
same,IC50,"[9]; L929, 48 h, L‐929, 48 h",29.6 ± 0.94 µM
same,IC50,"[9]; L929, 72 h, L‐929, 72 h",26.3 ± 0.112 µM
same,c‐PARP (89‐kD fragment) protein change,c‐PARP,consistent activation; also recorded: significant increase
same,Apoptotic cells,MCF‐7 [10]; 25 µM,6%
same,Dead cells,MCF‐7 [10]; 25 µM,7%
same,Live cells,MCF‐7 [10]; 25 µM,87%
same,Apoptotic cells,MCF‐7 [10]; 50 µM,16%
same,Dead cells,MCF‐7 [10]; 50 µM,10%
same,Live cells,MCF‐7 [10]; 50 µM,74%
same,Apoptotic cells,MCF‐7 [10]; 75 µM,18%
same,Dead cells,MCF‐7 [10]; 75 µM,27%
same,Live cells,MCF‐7 [10]; 75 µM,55%
O=c1[nH]cc(F)c(=O)[nH]1 [5‐FU],IC50,"MCF‐7 [11]; MCF‐7, 24 h, ref Badawi et al. (2023) [68]",17 µM
same,IC50,MDA‐MB‐231 [12]; ref Badawi et al. (2023) [68],11.7 µM
CC(C)Cc1ccc(C(C)C(=O)O)cc1 (stereo not drawn) [Ibuprofen],IC50,"MCF‐7 [11]; MCF‐7, 48 h, ref Daniel Pedro‐Hernández et al. (2020) [67]",92.1 µM
Cc1ccc(-c2cc(C(F)(F)F)nn2-c2ccc(S(N)(=O)=O)cc2)cc1 [Celecoxib],IC50,"MCF‐7 [11]; MCF‐7, 24 h, monolayer cultures, ref Huang et al. (2017) [64]",89 µM
same,IC50,"MCF‐7 [11]; MCF‐7, 24 h, monolayer cultures, ref Huang et al. (2017) [64], listed as celecoxib",40.1 µM
same,IC50,[13],25 to 100 µM
same,IC50,"MDA‐MB‐231 [12]; monolayer cultures, ref Huang et al. (2017) [64]",40.1 µM
same,IC50,"MDA‐MB‐231 [12]; monolayer cultures, ref Huang et al. (2017) [64], listed as celecoxib",89 µM
